From ChEMBL document CHEMBL5465560, “Selectivity Literature for EUbOPEN Chemogenomic Library” (2024)

Columns and labels:
[1] = target: Glutamate receptor ionotropic, kainate 1 (Homo sapiens) (UniProt P39086); test: Selectivity interaction (Eurofins CEREP Diversity Profile (receptors and ion channels)) EUB0000279b GRIK1; conditions: at 10 µM
[2] = target: T1, Phosphatidylinositol 5-phosphate 4-kinase type-2 beta (Homo sapiens) (UniProt P78356); test: Selectivity interaction (Ambit KINOMEscan and KiNATiv profiling in Jurkat cells) EUB0000090b PIP4K2B; format: cell-based; conditions: at 1 µM
T1 sequence (whole entry): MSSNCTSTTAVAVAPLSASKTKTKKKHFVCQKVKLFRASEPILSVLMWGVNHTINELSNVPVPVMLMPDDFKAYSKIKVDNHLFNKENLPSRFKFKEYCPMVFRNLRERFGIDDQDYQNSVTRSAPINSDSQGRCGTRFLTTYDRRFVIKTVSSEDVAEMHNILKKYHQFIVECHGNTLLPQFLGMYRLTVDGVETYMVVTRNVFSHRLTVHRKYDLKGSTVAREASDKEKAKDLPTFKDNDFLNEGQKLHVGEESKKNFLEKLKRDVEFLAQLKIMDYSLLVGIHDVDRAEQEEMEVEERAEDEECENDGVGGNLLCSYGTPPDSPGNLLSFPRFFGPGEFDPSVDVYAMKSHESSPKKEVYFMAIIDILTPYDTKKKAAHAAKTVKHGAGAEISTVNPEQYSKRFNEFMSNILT

[3] = target: Dual specificity mitogen-activated protein kinase kinase 1 (Homo sapiens, UniProt Q02750); test: Selectivity interaction (ActivX KiNativ screen (ex vivo kinase selectivity in human PBMCs)) EUB0001619a MAP2K1; format: cell-based; conditions: PBMC, at 1 µM
Chain of Dual specificity mitogen-activated protein kinase kinase 1 (Q02750 whole entry): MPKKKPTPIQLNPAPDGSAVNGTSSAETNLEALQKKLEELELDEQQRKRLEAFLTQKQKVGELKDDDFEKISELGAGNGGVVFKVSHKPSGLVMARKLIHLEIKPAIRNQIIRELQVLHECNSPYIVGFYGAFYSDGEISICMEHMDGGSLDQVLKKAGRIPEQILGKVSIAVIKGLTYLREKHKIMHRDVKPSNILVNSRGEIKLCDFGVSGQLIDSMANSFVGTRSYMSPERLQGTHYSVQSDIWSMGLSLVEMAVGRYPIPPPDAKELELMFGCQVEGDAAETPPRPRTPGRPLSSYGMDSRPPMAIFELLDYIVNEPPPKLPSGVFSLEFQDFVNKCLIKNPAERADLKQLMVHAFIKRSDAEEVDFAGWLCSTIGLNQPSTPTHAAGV

[4] = target: Serine/threonine-protein kinase SIK2 (Homo sapiens) (UniProt Q9H0K1); conditions: at 10 µM
Chain of Serine/threonine-protein kinase SIK2 (Homo sapiens) (Q9H0K1 whole entry, looked up): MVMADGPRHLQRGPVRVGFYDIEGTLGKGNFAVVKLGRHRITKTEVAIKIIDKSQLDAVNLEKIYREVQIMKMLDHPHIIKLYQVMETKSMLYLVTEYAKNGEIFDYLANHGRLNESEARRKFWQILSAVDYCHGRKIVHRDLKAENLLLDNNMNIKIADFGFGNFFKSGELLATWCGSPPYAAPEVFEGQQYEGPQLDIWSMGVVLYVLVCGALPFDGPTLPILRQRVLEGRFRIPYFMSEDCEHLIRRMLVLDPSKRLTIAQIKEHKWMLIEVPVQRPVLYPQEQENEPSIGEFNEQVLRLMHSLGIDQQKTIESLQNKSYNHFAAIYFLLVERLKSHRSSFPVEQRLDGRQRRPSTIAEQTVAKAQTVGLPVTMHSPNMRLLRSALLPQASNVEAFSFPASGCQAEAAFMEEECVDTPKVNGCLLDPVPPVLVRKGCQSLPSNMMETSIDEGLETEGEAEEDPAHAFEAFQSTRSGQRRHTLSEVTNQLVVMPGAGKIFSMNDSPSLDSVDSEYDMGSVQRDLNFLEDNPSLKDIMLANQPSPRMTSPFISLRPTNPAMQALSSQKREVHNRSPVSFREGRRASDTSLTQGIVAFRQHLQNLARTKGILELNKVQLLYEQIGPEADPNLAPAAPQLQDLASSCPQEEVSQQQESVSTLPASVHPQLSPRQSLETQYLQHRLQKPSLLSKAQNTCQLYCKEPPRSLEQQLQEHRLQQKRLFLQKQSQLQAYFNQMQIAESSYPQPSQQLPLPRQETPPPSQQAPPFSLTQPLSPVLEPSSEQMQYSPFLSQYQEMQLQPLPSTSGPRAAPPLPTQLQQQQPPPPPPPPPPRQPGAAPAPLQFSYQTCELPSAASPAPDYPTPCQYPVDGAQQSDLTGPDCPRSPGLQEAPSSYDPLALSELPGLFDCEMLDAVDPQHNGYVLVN

[5] = target: Bone morphogenetic protein receptor type-1B (Homo sapiens, UniProt O00238); conditions: at 10 µM
Chain of Bone morphogenetic protein receptor type-1B (O00238 whole entry): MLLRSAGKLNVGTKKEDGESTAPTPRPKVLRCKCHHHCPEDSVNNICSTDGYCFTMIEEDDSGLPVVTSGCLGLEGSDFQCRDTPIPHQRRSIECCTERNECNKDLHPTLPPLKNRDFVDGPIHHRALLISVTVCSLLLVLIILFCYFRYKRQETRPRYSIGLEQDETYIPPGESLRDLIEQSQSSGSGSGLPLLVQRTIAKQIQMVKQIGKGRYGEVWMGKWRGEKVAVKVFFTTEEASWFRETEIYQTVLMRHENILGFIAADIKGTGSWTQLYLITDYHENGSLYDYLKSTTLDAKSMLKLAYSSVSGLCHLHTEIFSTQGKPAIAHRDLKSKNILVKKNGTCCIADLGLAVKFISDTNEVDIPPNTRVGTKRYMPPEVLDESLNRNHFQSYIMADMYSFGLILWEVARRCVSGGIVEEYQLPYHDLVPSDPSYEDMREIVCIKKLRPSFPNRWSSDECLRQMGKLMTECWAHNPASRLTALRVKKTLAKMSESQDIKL

[6] = target: T2, Tyrosine-protein kinase Mer (Homo sapiens) (UniProt Q12866); test: Selectivity interaction (KinomeScan (DiscoverX)) EUB0000229b MERTK; conditions: at 10 µM
T2 sequence (whole entry): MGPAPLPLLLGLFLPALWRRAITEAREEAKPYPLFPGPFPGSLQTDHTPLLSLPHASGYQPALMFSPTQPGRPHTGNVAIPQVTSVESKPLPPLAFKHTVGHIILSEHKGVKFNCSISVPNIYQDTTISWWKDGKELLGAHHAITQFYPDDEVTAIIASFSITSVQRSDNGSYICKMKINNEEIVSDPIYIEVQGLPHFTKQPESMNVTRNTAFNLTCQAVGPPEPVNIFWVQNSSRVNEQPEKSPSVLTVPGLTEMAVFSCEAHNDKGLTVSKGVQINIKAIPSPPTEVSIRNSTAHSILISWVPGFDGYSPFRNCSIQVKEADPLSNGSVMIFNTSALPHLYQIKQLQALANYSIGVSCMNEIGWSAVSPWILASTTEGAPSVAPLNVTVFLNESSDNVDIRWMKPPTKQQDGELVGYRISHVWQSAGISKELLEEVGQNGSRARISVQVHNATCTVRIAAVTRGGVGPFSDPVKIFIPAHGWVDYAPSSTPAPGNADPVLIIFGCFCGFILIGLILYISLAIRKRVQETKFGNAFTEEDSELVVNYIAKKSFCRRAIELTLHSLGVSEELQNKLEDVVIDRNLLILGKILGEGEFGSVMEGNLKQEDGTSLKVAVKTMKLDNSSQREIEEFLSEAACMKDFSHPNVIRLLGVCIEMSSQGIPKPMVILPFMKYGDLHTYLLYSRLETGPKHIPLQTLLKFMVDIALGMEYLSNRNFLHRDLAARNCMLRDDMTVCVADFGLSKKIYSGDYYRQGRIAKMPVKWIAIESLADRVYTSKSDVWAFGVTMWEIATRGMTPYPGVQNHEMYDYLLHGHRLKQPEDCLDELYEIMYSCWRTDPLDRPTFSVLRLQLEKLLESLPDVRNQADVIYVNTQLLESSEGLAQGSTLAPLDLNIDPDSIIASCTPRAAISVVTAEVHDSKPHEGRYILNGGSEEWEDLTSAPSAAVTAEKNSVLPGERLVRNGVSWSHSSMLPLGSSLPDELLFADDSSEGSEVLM

[7] = target: Ribosomal protein S6 kinase alpha-5 (Homo sapiens) (UniProt O75582); test: Selectivity interaction (ProQinase) EUB0000171b RPS6KA5
Chain of Ribosomal protein S6 kinase alpha-5 (Homo sapiens) (O75582 whole entry, looked up): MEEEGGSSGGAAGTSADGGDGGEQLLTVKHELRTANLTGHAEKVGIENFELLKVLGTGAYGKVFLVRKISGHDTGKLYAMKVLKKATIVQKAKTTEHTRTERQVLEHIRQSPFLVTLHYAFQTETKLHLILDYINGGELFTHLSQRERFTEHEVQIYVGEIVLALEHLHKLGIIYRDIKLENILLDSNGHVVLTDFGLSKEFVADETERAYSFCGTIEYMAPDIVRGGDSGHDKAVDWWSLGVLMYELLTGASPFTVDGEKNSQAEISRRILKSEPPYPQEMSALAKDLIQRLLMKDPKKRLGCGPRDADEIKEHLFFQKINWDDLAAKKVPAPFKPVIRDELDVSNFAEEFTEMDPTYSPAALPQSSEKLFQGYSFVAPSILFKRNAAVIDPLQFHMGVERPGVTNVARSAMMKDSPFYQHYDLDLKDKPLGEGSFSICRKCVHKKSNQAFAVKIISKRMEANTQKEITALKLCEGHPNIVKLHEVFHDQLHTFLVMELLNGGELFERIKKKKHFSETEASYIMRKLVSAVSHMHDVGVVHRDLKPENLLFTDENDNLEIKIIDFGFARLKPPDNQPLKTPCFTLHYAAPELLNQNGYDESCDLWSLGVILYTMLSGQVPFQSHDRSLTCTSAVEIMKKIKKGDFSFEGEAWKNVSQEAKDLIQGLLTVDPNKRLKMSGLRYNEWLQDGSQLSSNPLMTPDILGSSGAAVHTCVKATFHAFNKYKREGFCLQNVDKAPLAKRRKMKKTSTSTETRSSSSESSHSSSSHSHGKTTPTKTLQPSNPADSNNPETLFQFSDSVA

[8] = target: T3, Ephrin type-B receptor 1 (Homo sapiens) (UniProt P54762); test: Selectivity interaction (KinomeScan (DiscoverX)) EUB0001049a EPHB1; conditions: at 1 µM
T3 sequence (whole entry): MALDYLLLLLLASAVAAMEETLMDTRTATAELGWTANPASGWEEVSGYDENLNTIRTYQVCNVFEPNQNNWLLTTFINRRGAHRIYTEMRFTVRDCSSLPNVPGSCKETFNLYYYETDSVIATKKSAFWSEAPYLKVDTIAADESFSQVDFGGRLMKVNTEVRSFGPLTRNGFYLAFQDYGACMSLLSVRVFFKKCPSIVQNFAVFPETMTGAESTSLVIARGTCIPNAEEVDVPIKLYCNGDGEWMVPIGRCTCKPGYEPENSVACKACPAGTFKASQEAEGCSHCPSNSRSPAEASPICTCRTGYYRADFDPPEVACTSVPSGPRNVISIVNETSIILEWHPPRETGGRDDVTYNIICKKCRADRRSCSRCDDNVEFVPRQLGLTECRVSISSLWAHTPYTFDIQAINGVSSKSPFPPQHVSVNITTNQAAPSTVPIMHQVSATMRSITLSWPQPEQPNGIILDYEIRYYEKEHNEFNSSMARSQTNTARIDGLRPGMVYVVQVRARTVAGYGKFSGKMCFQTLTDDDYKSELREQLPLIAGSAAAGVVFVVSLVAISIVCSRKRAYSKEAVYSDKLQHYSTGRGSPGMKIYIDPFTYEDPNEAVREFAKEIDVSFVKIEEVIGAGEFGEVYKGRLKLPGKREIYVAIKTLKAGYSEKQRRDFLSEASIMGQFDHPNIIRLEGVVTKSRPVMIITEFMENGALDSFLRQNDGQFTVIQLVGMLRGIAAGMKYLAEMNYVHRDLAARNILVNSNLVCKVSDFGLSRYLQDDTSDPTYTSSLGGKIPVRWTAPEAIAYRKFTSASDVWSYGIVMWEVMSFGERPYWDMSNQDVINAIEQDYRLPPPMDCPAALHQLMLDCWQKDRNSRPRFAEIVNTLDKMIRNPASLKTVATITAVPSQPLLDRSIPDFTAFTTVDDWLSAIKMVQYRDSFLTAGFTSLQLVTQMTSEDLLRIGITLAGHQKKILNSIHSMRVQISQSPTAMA

Chain of Glutamate receptor ionotropic, kainate 1 (Homo sapiens) (P39086 whole entry): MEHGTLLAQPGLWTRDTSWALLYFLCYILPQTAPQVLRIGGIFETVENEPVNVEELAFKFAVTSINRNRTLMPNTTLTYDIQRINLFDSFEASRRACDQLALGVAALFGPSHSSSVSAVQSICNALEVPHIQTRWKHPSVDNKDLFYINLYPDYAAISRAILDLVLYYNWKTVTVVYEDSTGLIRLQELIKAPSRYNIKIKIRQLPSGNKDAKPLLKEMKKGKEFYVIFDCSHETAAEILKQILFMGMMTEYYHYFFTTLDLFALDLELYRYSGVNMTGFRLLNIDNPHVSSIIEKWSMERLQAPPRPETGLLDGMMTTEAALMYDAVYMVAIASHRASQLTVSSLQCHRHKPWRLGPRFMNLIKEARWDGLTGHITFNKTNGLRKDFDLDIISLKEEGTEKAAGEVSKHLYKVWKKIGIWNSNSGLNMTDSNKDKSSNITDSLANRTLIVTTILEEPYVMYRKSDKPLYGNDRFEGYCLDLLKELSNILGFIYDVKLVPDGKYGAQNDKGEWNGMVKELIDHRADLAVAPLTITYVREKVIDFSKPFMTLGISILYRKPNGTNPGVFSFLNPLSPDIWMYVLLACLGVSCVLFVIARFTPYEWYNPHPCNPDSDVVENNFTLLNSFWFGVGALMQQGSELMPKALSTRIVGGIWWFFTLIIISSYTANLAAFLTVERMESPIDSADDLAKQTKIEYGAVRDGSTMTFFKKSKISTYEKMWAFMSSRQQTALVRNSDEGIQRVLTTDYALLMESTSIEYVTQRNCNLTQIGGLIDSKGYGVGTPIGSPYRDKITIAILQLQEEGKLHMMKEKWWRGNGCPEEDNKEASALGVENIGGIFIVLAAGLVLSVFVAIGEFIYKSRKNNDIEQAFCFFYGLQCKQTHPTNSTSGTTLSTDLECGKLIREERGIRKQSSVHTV

SMILES: CC(=O)c1cc(-c2ccccc2OCC2CC2)c2ncccn12
- % of control [1]: 117%

SMILES: CN(C)C/C=C/C(=O)Nc1ccc(C(=O)N2CCCC(Nc3ncc(Cl)c(-c4c[nH]c5ccccc45)n3)C2)cc1 (centres undefined)
- % of control [2]: 83%

SMILES: N#Cc1cccc(-c2c[nH]c3ncnc(N4CCOCC4)c23)c1
- % of inhibition [3]: 0%

SMILES: COCC(=O)NC/C=C/c1ccc2ncnc(Nc3ccc(Oc4ccc(C)nc4)c(C)c3)c2c1 [CP-724714]
- % of control [4]: 84%

SMILES: Cc1cc([C@@H](C)Nc2ccccc2C(=O)O)c2nc(N3CCOCC3)cc(=O)n2c1 [AZD-6482]
- % of control [5]: 97%

SMILES: COc1cc(N(C)c2ccnc3ccc(C(F)(F)F)cc23)cc(OC)c1OC
- % binding [6]: 100%

SMILES: C=CC(=O)Nc1cccc(C(=O)Nc2ccc(Nc3cc(-c4[nH]c(SC)nc4C)ccn3)cc2)c1
- % of control ([7]; at 1 µM): 94%
- % of control ([7]; at 5 µM): 87%

SMILES: COc1cc(Nc2nc(C)cc(-c3cnn4nc(OC)ccc34)n2)cc(C(F)(F)F)c1
- % of control [8]: 85%
